{"source": "patent US20230310356A1", "about": "“COMPOSITION FOR PREVENTING, AMELIORATING, OR TREATING BRAIN DAMAGE AND MILD COGNITIVE IMPAIRMENT COMPRISING GLUTAMINE AS EFFECTIVE COMPONENT” (INDUSTRY-ACADEMIC COOPERATION FOUNDATION GYEONGSANG …, priority 2020, published 2023)", "key": {"ROS/RNS": {"test_system": "ROS/RNS", "experiment": "ROS/RNS levels in plasma, PFC and hippocampus after CIS and glutamine supplementation", "type": "in vivo, mouse", "conditions": "STR+Gln vs STR", "experimental": "Control (CTL) is a group which received normal diet (common diet with nutritional balance) without any stress, CTL+Gln group is a normal diet group supplemented with glutamine (150 mg/kg of feed) and without any stress, STR is a normal diet group under stress, and STR+Gln group is a normal diet group supplemented with glutamine (150 mg/kg of feed) under stress. The stress group (STR) was individually brought by force to a restrainer for 2 hours every day (i.e., between 2 PM and 4 PM) so that the animals are applied with chronic immobilization stress for 15 days. Fifty-one model animals of the second cohort, i.e., 12 to 13 animals per group, were not subjected to any behavior analysis but immediately sacrificed after completion of the last immobilization stress. Then, ROS/RNS levels in the plasma, PFC, and hippocampus were examined. Specifically, ROS/RNS was examined by using ROS/RNS assay kit (STA-347; Cell Biolabs, San Diego, CA, USA) and following the manufacturer's protocol. PFC and hippocampal tissues were subjected to tissue homogenization by using Bullert blender after adding glass beads to RIPA (radioimmunoprecipitation assay) buffer solution. After the ultrasonication for 2 minutes, they were centrifuged for 10 minutes at conditions including 4° C. and 12,000×g. Then, the measurement of fluorescence intensity using Tecan Infinite F200 PRO MicroReader was repeated 3 times."}, "PSD-95 and synaptophysin": {"test_system": "PSD-95 and synaptophysin", "experiment": "Synaptic puncta by co-localization of PSD-95 and synaptophysin after CIS and glutamine supplementation", "type": "in vivo, mouse", "conditions": "infralimbic cortex and hippocampal CA1 region (FIGS. 5E and 6F)", "experimental": "Control (CTL) is a group which received normal diet (common diet with nutritional balance) without any stress, CTL+Gln group is a normal diet group supplemented with glutamine (150 mg/kg of feed) and without any stress, STR is a normal diet group under stress, and STR+Gln group is a normal diet group supplemented with glutamine (150 mg/kg of feed) under stress. The stress group (STR) was individually brought by force to a restrainer for 2 hours every day (i.e., between 2 PM and 4 PM) so that the animals are applied with chronic immobilization stress for 15 days. Twenty-four hours after applying the last stress, the mouse was anesthetized with avertin, and perfused with PBS (pH 7.4) and 4% formaldehyde. After that, the brain was removed, fixed, and cut to a thickness with 40 μm. It was then incubated overnight after the addition of each antibody, nNOS (sc-5302, 200 μg/ml, Santa Cruz, Dallas, TX, USA, 1:50), iNOS (sc-7271, 200 μg/ml, Santa Cruz, 1:20), p47phox (sc-17845, 200 μg/ml, Santa Cruz, 1:20), p67phox (15551-1-AP, 43 μg/150 μl, Proteintech, Rosemont, IL, USA, 1:100), PSD-95 (postsynaptic density-95) (ab12093, 1 mg/ml, Abcam, Cambridge, UK, 1: 200), and synaptophysin (ab14692, 0.65 mg/ml, Abcam, 1: 200). […]"}, "[1]": {"test_system": "C57BL/6 female mouse (NonTg)", "experiment": "ORT cognitive ability test in normal control mouse with glutamine diet", "type": "in vivo", "conditions": "until the 6-months old stage, 150 mg glutamine/kg diet", "experimental": "As an animal model for cognitive ability evaluation, a 7-weeks old 3×TG-AD female mouse (8 mice. model of Alzheimer's disease) and a C57BL/6 female mouse (10 mice, control) were selected. The animals of each type were divided into 2 groups, and each group was provided with regular animal feed (i.e., normal diet, ND) or glutamine feed (Gln). The glutamine diet group was allowed to consume the feed containing 150 mg glutamine/kg diet, from 2-months old stage to the end of test (i.e., 6 to 7-months old stage). Health state of the animal was checked by measuring, once a week, the bodyweight of the animal and food intake (FIG. 7A). Cognitive ability test of the mouse as an animal model established above was determined by ORT (object recognition test). The animal was habituated in a box for 2 days. On Day 3, it was allowed to explore two identical objects for 10 minutes. On Day 4, one of the two objects was replaced with a novel object, and then, the animal was allowed to explore further for 5 minutes (FIG. 7B). The time spent by animal for exploring after approaching within 1 cm from the periphery of both objects was measured. After carrying out the calculation using Formula (3) below, DI (discrimination index) was calculated and compared to each other. In the present invention, a different novel object was employed for carrying out each test. […]"}, "[2]": {"test_system": "stratum pyramidale CA1 in hippocampus", "experiment": "Morphological change in hippocampus (Nissl staining, width of stratum pyramidale CA1) after CIS and glutamine supplementation", "type": "in vivo, mouse", "conditions": "STR+Gln vs STR; glutamine 150 mg/kg of feed", "experimental": "Control (CTL) is a group which received normal diet (common diet with nutritional balance) without any stress, CTL+Gln group is a normal diet group supplemented with glutamine (150 mg/kg of feed) and without any stress, STR is a normal diet group under stress, and STR+Gln group is a normal diet group supplemented with glutamine (150 mg/kg of feed) under stress. The stress group (STR) was individually brought by force to a restrainer for 2 hours every day (i.e., between 2 PM and 4 PM) so that the animals are applied with chronic immobilization stress for 15 days. Any morphological change in hippocampus caused by the application of chronic immobilization stress and glutamine supplementation was determined by brain tissue staining of hippocampal region. Specifically, a section (i.e., brain tissue specimen) obtained after mounting for 5 minutes in 0.1% cresyl violet which has been dissolved in 0.2% acetic acid followed by air-drying was stained. Stained section was washed, subsequently immersed for 30 seconds in 80% (v/v) ethanol, again immersed for 30 seconds in 90% (v/v) ethanol, and again immersed twice for 30 seconds in 95% (v/v) ethanol. It was again immersed twice for 30 seconds in 100% (v/v) ethanol for dehydration. […]"}}, "data": [{"smiles": "NC(=O)CC[C@H](N)C(=O)O", "note": "[glutamine]", "values": [{"measurement": "level of active oxygen/nitrogen species (ROS/RNS) in hippocampus", "setting": "ROS/RNS; hippocampal tissue", "value": "lower level"}, {"measurement": "level of active oxygen/nitrogen species (ROS/RNS) in plasma", "setting": "ROS/RNS; plasma", "value": "lower level"}, {"measurement": "level of active oxygen/nitrogen species (ROS/RNS) in PFC", "setting": "ROS/RNS; prefrontal cortex", "value": "lower level"}, {"measurement": "synaptic puncta (co-localization of PSD-95 and synaptophysin)", "setting": "PSD-95 and synaptophysin", "value": "significantly increased"}, {"measurement": "cognitive ability (ORT) change caused by glutamine diet", "setting": "[1]", "value": "no change"}, {"measurement": "width of CA1-SP (stratum pyramidale CA1)", "setting": "[2]", "value": "restored"}]}]}
